The values below come from ChEMBL document CHEMBL1201862, “PubChem BioAssay data set” (2004).

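Growth conditions: 96-well plates. Treatment: test compound, 48 hours, 5 concentrations. Analysis: linear interpolation between bracketing concentrations; unreached endpoints set to highest concentration. At the GI50, growth is halved.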 The source made the active and inactive calls. No stated cut-off is given here; in the data, active = GI50 up to about 1.1 µM and inactive = higher.

Test systems include MDA-N; NCI/ADR-RES; SF-539; SNB-19; A549; HCC 2998; NCI-H522; SR; OVCAR-8; CCRF-CEM; TK-10; UACC-62; A498; ACHN; HOP-92; SK-MEL-5; NCI-H23; Hs-578T; SNB-75.
Holding throughout (assay): NCI-60 cell line screen, 48 h

For `CC1(C)C[C@H]2[C@H](O)C(CO)=C3C(=O)[C@@H](O)[C@]3(C)[C@H]2C1`, the GI50 with MDA-N was 80.2 µM (inactive); with NCI/ADR-RES it was > 100 µM (inactive); in the experiment on SF-539, 48.6 µM (inactive); in the experiment with SNB-19, > 100 µM (inactive); in the experiment with A549, > 100 µM (inactive); in the experiment on HCC 2998, > 100 µM (inactive). In addition, the GI50 is 64.6 µM (inactive) in the experiment on NCI-H522; 50.2 µM (inactive) in the experiment with SR; > 100 µM (inactive) in the experiment on OVCAR-8; 24.5 µM (inactive) with CCRF-CEM; > 100 µM (inactive) in the experiment with TK-10; > 100 µM (inactive) in the experiment with UACC-62. For the same compound, the GI50 was > 100 µM (inactive) with A498; > 100 µM (inactive) in the experiment on ACHN; > 100 µM (inactive) with HOP-92; > 100 µM (inactive) in the experiment on SK-MEL-5; 63.7 µM (inactive) in the experiment on NCI-H23.

Turning to `COc1cc(O)cc(O)c1C(=O)CC(Cl)(Cl)Cl`, the GI50 with NCI/ADR-RES, in the experiment with Hs-578T, with SF-539, with SNB-19, in the experiment with A549 and in the experiment with HCC 2998 was > 100 µM (inactive) throughout. Besides, the GI50 in the experiment on NCI-H522, in the experiment on SR, with OVCAR-8, with CCRF-CEM, in the experiment with TK-10 and in the experiment with UACC-62 was > 100 µM (inactive) each time. Also, the GI50 in the experiment on A498, in the experiment with ACHN, in the experiment with HOP-92, with SK-MEL-5 and in the experiment on NCI-H23 was > 100 µM (inactive) throughout.

Turning to `CCCCSC1=N/C(=C\c2ccco2)C(Cl)=N1`, the GI50 with MDA-N, with NCI/ADR-RES, in the experiment with Hs-578T, with SNB-19, in the experiment on SNB-75 and in the experiment on A549 was > 100 µM (inactive) throughout. The GI50 with HCC 2998, in the experiment with NCI-H522, in the experiment with OVCAR-8, in the experiment on CCRF-CEM, in the experiment with TK-10 and with UACC-62 was > 100 µM (inactive) throughout. Also, the GI50 in the experiment with A498, with ACHN, with SK-MEL-5 and in the experiment with NCI-H23 was > 100 µM (inactive) each time.

Regarding `COc1ccc2c(c1OC)C(=O)N/C2=C\c1c(CCN(C)C)cc2c(c1OC)OCO2`, the GI50 is 25.6 µM (inactive) in the experiment on MDA-N; 13.6 µM (inactive) with Hs-578T; > 100 µM (inactive) with SF-539; > 100 µM (inactive) in the experiment on SNB-19; < 0.01 µM (active) in the experiment with SNB-75; > 100 µM (inactive) in the experiment with A549. Also, the GI50 with HCC 2998 was > 100 µM (inactive); with NCI-H522 it was 37.6 µM (inactive); in the experiment on SR, > 100 µM (inactive); in the experiment with OVCAR-8 it was > 100 µM (inactive); in the experiment on CCRF-CEM, > 100 µM (inactive); in the experiment with TK-10, > 100 µM (inactive). Moreover, the GI50 in the experiment with ACHN is > 100 µM (inactive); in the experiment with HOP-92 it was > 100 µM (inactive); in the experiment with SK-MEL-5, 42.4 µM (inactive); in the experiment on NCI-H23 it was > 100 µM (inactive).

As to `Cc1ccc(-c2n[nH]c(=O)n2/N=C\c2ccc([N+](=O)[O-])cc2)cc1`, the GI50 in the experiment on NCI/ADR-RES is > 100 µM (inactive); in the experiment on Hs-578T it was 41.1 µM (inactive); in the experiment on SF-539 it was > 100 µM (inactive); with SNB-19, > 100 µM (inactive); in the experiment with SNB-75, 97.5 µM (inactive); in the experiment with A549 it was > 100 µM (inactive). Besides, the GI50 in the experiment with HCC 2998 is > 100 µM (inactive); in the experiment with NCI-H522 it was > 100 µM (inactive); in the experiment with SR, 31.8 µM (inactive); in the experiment with OVCAR-8, > 100 µM (inactive); in the experiment on CCRF-CEM, > 32.1 µM (inactive); in the experiment on TK-10 it was > 100 µM (inactive). Moreover, the GI50 was 60.1 µM (inactive) with UACC-62; > 100 µM (inactive) with A498; > 80.5 µM (inactive) in the experiment on ACHN; > 74.3 µM (inactive) in the experiment on HOP-92; 92.9 µM (inactive) with SK-MEL-5; > 100 µM (inactive) in the experiment on NCI-H23.

In the case of `N#C/C(=C1\N=C(c2ccccc2O)Oc2ccccc21)c1ccc([N+](=O)[O-])cc1`, the GI50 in the experiment with MDA-N is > 100 µM (inactive); in the experiment with NCI/ADR-RES it was > 100 µM (inactive); in the experiment on Hs-578T, 62.2 µM (inactive); with SF-539, 66.5 µM (inactive); in the experiment on SNB-19, > 100 µM (inactive); in the experiment with SNB-75 it was 70.6 µM (inactive). In addition, the GI50 in the experiment with A549, with HCC 2998, with OVCAR-8, in the experiment on CCRF-CEM, in the experiment with TK-10 and in the experiment with UACC-62 was > 100 µM (inactive) throughout. For the same compound, the GI50 in the experiment on A498, with ACHN, in the experiment on HOP-92, with SK-MEL-5 and in the experiment on NCI-H23 was > 100 µM (inactive) in each case.

Consider `CC(C)(C)c1ccc(/C=N/NC(=O)CSCC(=O)N/N=C/c2ccc(C(C)(C)C)cc2)cc1`, for which the GI50 in the experiment with NCI/ADR-RES was 4.26 µM (inactive); in the experiment with Hs-578T, 3.17 µM (inactive); in the experiment on SF-539, 2.12 µM (inactive); in the experiment on SNB-19, 2.93 µM (inactive); with SNB-75, 5.32 µM (inactive); in the experiment with A549, 2.86 µM (inactive). Moreover, the GI50 in the experiment on HCC 2998 was 2.73 µM (inactive); with NCI-H522, 4.47 µM (inactive); in the experiment on SR, 1.7 µM (inactive); in the experiment on OVCAR-8 it was 2.63 µM (inactive); in the experiment on TK-10, 5.21 µM (inactive); in the experiment with UACC-62, 16.4 µM (inactive). The GI50 is 1.46 µM (inactive) in the experiment on A498; 2.93 µM (inactive) with ACHN; 2.49 µM (inactive) in the experiment on HOP-92; 1.87 µM (inactive) with SK-MEL-5; 2.5 µM (inactive) in the experiment on NCI-H23.

As to `O=C(O)CCC(NC(=O)c1ccc(Oc2nc3ccccc3nc2C(=O)O)cc1)C(=O)O` (stereo not drawn), the GI50 in the experiment on NCI/ADR-RES, with Hs-578T, in the experiment on SNB-19, in the experiment with SNB-75, in the experiment with A549 and with HCC 2998 was > 100 µM (inactive) each time. Further, the GI50 with NCI-H522, with SR, with OVCAR-8, in the experiment on CCRF-CEM, with TK-10 and in the experiment on UACC-62 was > 100 µM (inactive) in each case. The GI50 in the experiment on A498, with ACHN, in the experiment on HOP-92, in the experiment with SK-MEL-5 and in the experiment with NCI-H23 was > 100 µM (inactive) each time.

As for `Cc1ccc(/N=N/c2c(C)c(C#N)c(=S)n(C3OC(CO)C(O)C(O)C3O)c2-c2ccccc2)cc1` (stereo not drawn), the GI50 was 8.07 µM (inactive) in the experiment with MDA-N; 29 µM (inactive) in the experiment on NCI/ADR-RES; 24.5 µM (inactive) in the experiment with Hs-578T; 28.5 µM (inactive) with SF-539; 19.6 µM (inactive) in the experiment with SNB-19; 20.1 µM (inactive) in the experiment on SNB-75. For the same compound, the GI50 in the experiment with A549 was 32 µM (inactive); with HCC 2998 it was 41.1 µM (inactive); in the experiment on CCRF-CEM, 11.5 µM (inactive); in the experiment on TK-10, 29.5 µM (inactive); with UACC-62 it was 14.5 µM (inactive); with A498, 0.74 µM (active). The GI50 was 30.7 µM (inactive) with ACHN, 11.2 µM (inactive) in the experiment with SK-MEL-5 and 16.5 µM (inactive) in the experiment on NCI-H23.

Regarding `NC(=S)Nc1c(S(N)(=O)=O)cc(S(N)(=O)=O)c(Cl)c1Cl`, the GI50 in the experiment with MDA-N was > 100 µM (inactive); in the experiment on NCI/ADR-RES, > 100 µM (inactive); in the experiment with Hs-578T, > 100 µM (inactive); with SF-539 it was 0.443 µM (active); with SNB-19, > 100 µM (inactive); with SNB-75, > 100 µM (inactive). In addition, the GI50 in the experiment with A549, in the experiment with NCI-H522, in the experiment with OVCAR-8, in the experiment with CCRF-CEM, in the experiment on TK-10 and in the experiment with UACC-62 was > 100 µM (inactive) throughout. In addition, the GI50 in the experiment with HOP-92, in the experiment on SK-MEL-5 and with NCI-H23 was > 100 µM (inactive) in each case.

With `Cc1c2c(Cl)c3c(c(Cl)c2c(C)c2c(Cl)c4c(c(Cl)c12)C(c1ccccc1)(c1ccccc1)C4(c1ccccc1)c1ccccc1)C(c1ccccc1)(c1ccccc1)C3(c1ccccc1)c1ccccc1`, the GI50 in the experiment on MDA-N, in the experiment with NCI/ADR-RES, in the experiment with SF-539, in the experiment on SNB-19, in the experiment with SNB-75 and with A549 was > 100 µM (inactive) throughout. In addition, the GI50 in the experiment with HCC 2998, with NCI-H522, in the experiment on SR, in the experiment with OVCAR-8, with CCRF-CEM and in the experiment on TK-10 was > 100 µM (inactive) throughout. The GI50 in the experiment on UACC-62, in the experiment with A498, in the experiment with ACHN, in the experiment with HOP-92, in the experiment on SK-MEL-5 and in the experiment with NCI-H23 was > 100 µM (inactive) in each case.

In the case of `O=C(O)C1CCCCC1c1c2ccc(=O)c(O)c-2oc2c(O)c(O)ccc12` (stereo not drawn), the GI50 with MDA-N is 17.2 µM (inactive); with Hs-578T it was 4.44 µM (inactive); in the experiment with SNB-19, 29.4 µM (inactive); in the experiment with SNB-75 it was 28.3 µM (inactive); in the experiment with A549 it was 13 µM (inactive); in the experiment with NCI-H522, 14.5 µM (inactive). Further, the GI50 was 27.5 µM (inactive) in the experiment with SR; 22 µM (inactive) in the experiment on OVCAR-8; 0.18 µM (active) in the experiment on CCRF-CEM; > 100 µM (inactive) in the experiment on TK-10; 23.6 µM (inactive) with UACC-62; 21.7 µM (inactive) in the experiment on A498. Also, the figures for the GI50 in the experiment with ACHN, in the experiment on HOP-92 and in the experiment with SK-MEL-5 were 14 µM (inactive), 31.6 µM (inactive) and 25.5 µM (inactive), respectively.
